In patent US9084420B2, “Amide derivative, pest control agent containing the amide derivative, and pest controlling method” (Mitsui Chemicals Agro, Inc., priority 2008, dated 2015):

Experiments:
Type in all cases: in vivo
Plutella xylostella = assay: Pesticidal test against Plutella xylostella (cabbage leaf immersion); details: 144 h, 3-stage larvae on treated cabbage leaf, 25° C., after 6 days, read-out: pesticidal rate
Procedure: (§1) Pesticidal Test Against Plutella xylostella A piece of a cabbage leaf was immersed for 30 seconds in a chemical solution in which a test compound had been diluted at a predetermined concentration, and air-dried, and then put into a 7 cm polyethylene cup having a filter paper laid on the bottom thereof, and 3-stage larvae of Plutella xylostella were released. They were left to stand in a thermostatic chamber at 25° C., and the numbers of the living pests and the dead pests were examined after 6 days. The test was carried out with five larvae per group in two replicates.

Musca domestica = assay: Pesticidal test against Musca domestica (petri dish residue); details: 24 h, acetone solution dried in petri dish, female adults, 25° C., after 1 day, read-out: pesticidal rate
Procedure: Pesticidal Test Against Musca domestica
1 ml of an acetone solution in which a test compound had been diluted at a predetermined concentration was added dropwise to a petri dish having a diameter of 9 cm, and air-dried, and then the female adults of Musca domestica were released and the petri dish was capped. They were left to stand in a thermostatic chamber at 25° C., and the numbers of the living pests and the dead pests were examined after 1 day. The test was carried out with […] in two replicates.

Spodoptera litura [1] = assay: Pesticidal test against Spodoptera litura (cabbage leaf immersion); details: 144 h, 2-stage larvae on treated cabbage leaf, 25° C., after 6 days, read-out: pesticidal rate
Procedure: as §1, with “Spodoptera litura” for “Plutella xylostella”, “2-stage” for “3-stage”

Spodoptera litura [2] = assay: Pesticidal test of penetration migration against Spodoptera litura (radish seedling root immersion); details: 72 h, radish seedling root immersed 2 days, leaf fed to 2-stage larvae, 25° C., after 3 days, read-out: pesticidal rate
Procedure: Pesticidal Test of Penetration Migration against Spodoptera litura A root portion of a radish seedling was immersed for 2 days in a chemical solution in which a test compound had been diluted at a predetermined concentration, then the leaf was cut and put into a 7 cm polyethylene cup having a filter paper laid on the bottom thereof, and 2-stage larvae of Spodoptera litura were released. They were left to stand in a thermostatic chamber at 25° C., and the numbers of the living pests and the dead pests were examined after 3 days. The test was carried out with five larvae per group in two replicates.

COC(=O)CCN(C(=O)c1ccccc1)c1cccc(C(=O)Nc2c(I)cc(C(F)(C(F)(F)F)C(F)(F)F)cc2C(F)(F)F)c1 [5-80, methyl 3-(N-(3-(2-iodo-4-(perfluoropropan-2-yl)-6-(trifluoromethyl)phenylcarbamoyl)phenyl)benzamide)propanoate]
pest or weed control at 100 ppm (Plutella xylostella): ≥ 70%
pest or weed control at 1000 ppm (Musca domestica): ≥ 70%
pest or weed control at 100 ppm (Spodoptera litura [1]): ≥ 70%

Cc1cc(C(F)(C(F)(F)F)C(F)(F)F)cc(C)c1NC(=O)c1cccc(N(CCC#N)C(=O)c2ccccc2)c1 [5-8, N-(2-cyanoethyl)-N-(3-(2,6-dimethyl-4-(perfluoropropan-2-yl)phenylcarbamoyl)phenyl)benzamide]
pest or weed control at 100 ppm (Plutella xylostella): ≥ 70%
pest or weed control at 1000 ppm (Musca domestica): ≥ 70%
pest or weed control at 100 ppm (Spodoptera litura [1]): ≥ 70%

CCOC(=O)NC(=O)CCN(C(=O)c1ccc(C#N)cc1)c1cccc(C(=O)Nc2c(Br)cc(C(F)(C(F)(F)F)C(F)(F)F)cc2C(F)(F)F)c1F [5-76, ethyl 3-(N-(3-(2-bromo-4-(perfluorophan-2-yl)-6-(trifluoromethyl)phenylcarbamoyl)-2-fluorophenyl)-4-cyanobenzamide)propanoylcarbamate]
pest or weed control at 100 ppm (Plutella xylostella): ≥ 70%
pest or weed control at 1 ppm (Spodoptera litura [2]): ≥ 70%
pest or weed control at 1000 ppm (Musca domestica): ≥ 70%
pest or weed control at 100 ppm (Spodoptera litura [1]): ≥ 70%

Cc1cc(C(F)(C(F)(F)F)C(F)(F)F)cc(C)c1NC(=O)c1cccc(N(CCC(N)=O)C(=O)c2ccccc2)c1F [1-21, 3-(N-(3-amino-3-oxopropyl)benzamide)-N-(2,6-dimethyl-4-(perfluoropropan-2-yl)phenyl)-2-fluorobenzamide]
pest or weed control at 100 ppm (Plutella xylostella): ≥ 70%
pest or weed control at 1 ppm (Spodoptera litura [2]): ≥ 70%
pest or weed control at 100 ppm (Spodoptera litura [1]): ≥ 70%

NC(=O)CCN(C(=O)c1ccccc1)c1cccc(C(=O)Nc2c(Br)cc(C(F)(C(F)(F)F)C(F)(F)F)cc2C(F)(F)F)c1F [1-171, 3-(N-(3-amino-3-oxopropyl)benzamide)-N-(2-bromo-4-(perfluoropropan-2-yl)-6-(trifluoromethyl)phenyl)-2-fluorobenzamide]
pest or weed control at 100 ppm (Plutella xylostella): ≥ 70%
pest or weed control at 1 ppm (Spodoptera litura [2]): ≥ 70%
pest or weed control at 100 ppm (Spodoptera litura [1]): ≥ 70%

CC(C)(C)OC(=O)C(CN(C(=O)c1cccc(C#N)c1)c1cccc(C(=O)Nc2c(Br)cc(C(F)(C(F)(F)F)C(F)(F)F)cc2Br)c1F)C(=O)OC(C)(C)C [6-44, di-tert-butyl 2-((3-cyano-N-(3-(2,6-dibromo-4-(perfluoropropan-2-yl)phenylcarbamoyl)-2-fluorophenyl)benzamide)methyl)malonate]
pest or weed control at 100 ppm (Plutella xylostella): ≥ 70%
pest or weed control at 1000 ppm (Musca domestica): ≥ 70%
pest or weed control at 100 ppm (Spodoptera litura [1]): ≥ 70%

Cc1cc(C(F)(C(F)(F)F)C(F)(F)F)cc(C)c1NC(=O)c1cccc(N(CCCC(N)=O)C(=O)c2ccccc2)c1 [6-16, N-(4-amino-4-oxobutyl)-N-(3-(2,6-dimethyl-4-(perfluoropropan-2-yl)phenylcarbamoyl)phenyl)benzamide]
pest or weed control at 100 ppm (Plutella xylostella): ≥ 70%
pest or weed control at 1000 ppm (Musca domestica): ≥ 70%
pest or weed control at 100 ppm (Spodoptera litura [1]): ≥ 70%

NC(=O)CCN(C(=O)c1ccccc1)c1cccc(C(=O)Nc2c(Br)cc(C(F)(C(F)(F)F)C(F)(F)F)cc2Br)c1F [1-163, 3-(N-(3-amino-3-oxopropyl)benzamide)-N-(2,6-dibromo-4-(perfluoropropan-2-yl)phenyl)-2-fluorobenzamide]
pest or weed control at 100 ppm (Plutella xylostella): ≥ 70%
pest or weed control at 1 ppm (Spodoptera litura [2]): ≥ 70%
pest or weed control at 100 ppm (Spodoptera litura [1]): ≥ 70%

Cc1cc(C(F)(C(F)(F)F)C(F)(F)F)cc(C)c1NC(=O)c1cccc(N(CC=O)C(=O)c2ccccc2)c1 [6-59, N-(3-(2,6-dimethyl-4-(perfluoropropan-2-yl)phenylcarbamoyl)phenyl)-N-(2-oxoethyl)benzamide]
pest or weed control at 100 ppm (Plutella xylostella): ≥ 70%
pest or weed control at 100 ppm (Spodoptera litura [1]): ≥ 70%

COC(=O)CN(C(=O)c1cccc(N(C)C(=O)c2ccccc2)c1F)c1c(C)cc(C(F)(C(F)(F)F)C(F)(F)F)cc1C [7-221, methyl 2-(N-(2,6-dimethyl-4-(perfluoropropan-2-yl)phenyl)-2-fluoro-3-(N-methylbenzamide)benzamide)acetate]
pest or weed control at 100 ppm (Plutella xylostella): ≥ 70%
pest or weed control at 100 ppm (Spodoptera litura [1]): ≥ 70%

Cc1cc(C(F)(C(F)(F)F)C(F)(F)F)cc(C)c1NC(=O)c1cccc(N(CCC(=O)NN)C(=O)c2ccc(C#N)cc2)c1F [5-83, 3-(4-cyano-N-(3-hydrazinyl-3-oxopropyl)benzamide)-N-(2,6-dimethyl-4-(perfluoropropan-2-yl)phenyl)-2-fluorobenzamide]
pest or weed control at 100 ppm (Plutella xylostella): ≥ 70%
pest or weed control at 100 ppm (Spodoptera litura [1]): ≥ 70%

N#Cc1cccc(C(=O)N(CCC(=O)NO)c2cccc(C(=O)Nc3c(Br)cc(C(F)(C(F)(F)F)C(F)(F)F)cc3Br)c2F)c1 [5-33, 3-(3-cyano-N-(3-(hydroxyamino)-3-oxopropyl)benzamide)-N-(2,6-dibromo-4-(perfluoropropan-2-yl)phenyl)-2-fluorobenzamide]
pest or weed control at 100 ppm (Plutella xylostella): ≥ 70%
pest or weed control at 1 ppm (Spodoptera litura [2]): ≥ 70%
pest or weed control at 100 ppm (Spodoptera litura [1]): ≥ 70%

Cc1cc(C(F)(C(F)(F)F)C(F)(F)F)cc(C)c1N(C)C(=O)c1cccc(N(CCCC(N)=O)C(=O)c2ccccc2)c1 [6-15, 3-(N-(4-amino-4-oxobutyl)benzamide)-N-(2,6-dimethyl-4-(perfluoropropan-2-yl)phenyl)-N-methylbenzamide]
pest or weed control at 100 ppm (Plutella xylostella): ≥ 70%
pest or weed control at 100 ppm (Spodoptera litura [1]): ≥ 70%

O=C(O)CCN(C(=O)c1ccccc1)c1cccc(C(=O)Nc2c(I)cc(C(F)(C(F)(F)F)C(F)(F)F)cc2C(F)(F)F)c1 [5-88, 3-(N-(3-(2-iodo-4-(perfluoropropan-2-yl)-6-(trifluoromethyl)phenylcarbamoyl)phenyl)benzamide)propanoic acid]
pest or weed control at 100 ppm (Plutella xylostella): ≥ 70%
pest or weed control at 100 ppm (Spodoptera litura [1]): ≥ 70%

CSCN(C(=O)c1ccccc1)c1cccc(C(=O)N(C)c2c(C)cc(C(F)(C(F)(F)F)C(F)(F)F)cc2C)c1 [6-6, N-(2,6-dimethyl-4-(perfluoropropan-2-yl)phenyl)-N-methyl-3-(N-(methylthiomethyl)benzamide)benzamide]
pest or weed control at 100 ppm (Plutella xylostella): ≥ 70%
pest or weed control at 100 ppm (Spodoptera litura [1]): ≥ 70%

C/C(CCN(C(=O)c1ccccc1)c1cccc(C(=O)Nc2c(C)cc(C(F)(C(F)(F)F)C(F)(F)F)cc2C)c1)=N\O [5-105, N-(3-(2,6-dimethyl-4-(perfluoropropan-2-yl)phenylcarbamoyl)phenyl)-N-(3-(hydroxyimino)butyl)benzamide]
pest or weed control at 100 ppm (Plutella xylostella): ≥ 70%
pest or weed control at 1000 ppm (Musca domestica): ≥ 70%
pest or weed control at 100 ppm (Spodoptera litura [1]): ≥ 70%

Cc1cc(C(F)(C(F)(F)F)C(F)(F)F)cc(C)c1N(CC(=O)O)C(=O)c1cccc(N(C)C(=O)c2ccccc2)c1F [7-222, 2-(N-(2,6-dimethyl-4-(perfluoropropan-2-yl)phenyl)-2-fluoro-3-(N-methylbenzamide)benzamide)acetic acid]
pest or weed control at 100 ppm (Plutella xylostella): ≥ 70%
pest or weed control at 100 ppm (Spodoptera litura [1]): ≥ 70%

Cc1cc(C(F)(C(F)(F)F)C(F)(F)F)cc(C)c1NC(=O)c1cccc(N(CCC(N)=O)C(=O)c2ccccc2)c1 [1-1, N-(3-amino-3-oxopropyl)-N-(3-(2,6-dimethyl-4-(perfluoropropan-2-yl)phenylcarbamoyl)phenyl)benzamide]
pest or weed control at 100 ppm (Plutella xylostella): ≥ 70%
pest or weed control at 100 ppm (Spodoptera litura [1]): ≥ 70%

COC(=O)CN(C(=O)c1ccccc1)c1cccc(C(=O)N(CC(=O)OC)c2c(C)cc(C(F)(C(F)(F)F)C(F)(F)F)cc2C)c1F [8-12, methyl 2-(N-(3((2,6-dimethyl-4-(perfluoropropan-2-yl)phenyl)(2-methoxy-2-oxoethyl)carbamoyl)-2-fluorophenyl)benzamide)acetate]
pest or weed control at 100 ppm (Plutella xylostella): ≥ 70%
pest or weed control at 100 ppm (Spodoptera litura [1]): ≥ 70%

N#Cc1ccc(C(=O)N(CCS(N)(=O)=O)c2cccc(C(=O)Nc3c(Br)cc(C(F)(C(F)(F)F)C(F)(F)F)cc3Br)c2F)cc1 [2-133, 3-(4-cyano-N-(2-sulfamoylethyl)benzamide)-N-(2,6-dibromo-4-(perfluoropropan-2-yl)phenyl)-2-fluorobenzamide]
pest or weed control at 100 ppm (Plutella xylostella): ≥ 70%
pest or weed control at 1 ppm (Spodoptera litura [2]): ≥ 70%
pest or weed control at 100 ppm (Spodoptera litura [1]): ≥ 70%

CC(=O)CCN(C(=O)c1ccccc1)c1cccc(C(=O)Nc2c(C)cc(C(F)(C(F)(F)F)C(F)(F)F)cc2C)c1 [5-100, N-(3-(2,6-dimethyl-4-(perfluoropropan-2-yl)phenylcarbamoyl)phenyl)-N-(3-oxobutyl)benzamide]
pest or weed control at 100 ppm (Plutella xylostella): ≥ 70%
pest or weed control at 1000 ppm (Musca domestica): ≥ 70%
pest or weed control at 100 ppm (Spodoptera litura [1]): ≥ 70%
